{"source": "patent US10799442B2", "about": "“Compounds useful in the treatment and/or care of the skin, hair, nails, and/or mucous membranes” (LUBRIZOL ADVANCED MATERIALS, INC., priority 2015, dated 2020)", "key": {"Keratin 10": {"system": "Keratin 10", "test": "Keratin expression in reconstructed human epidermal tissue (RHE), immunohistochemistry (Keratin 10)", "type": "cell-based", "conditions": "Keratin 10 immunofluorescence, 10 μg/ml, 48 hours", "description": "The human epidermis continuously renews itself by a process of proliferation and differentiation of keratinocytes. Basal epidermal stem cells proliferate and the differentiation process begins above the basal layer, whereby the differentiating keratinocytes slowly move outward from the basal membrane, migrate through the epidermis, and undergo terminal differentiation culminating in fully differentiated dead cells on the surface. The process is a dynamic flux so that surface cells are continuously sloughed and replaced by inner cells differentiating and moving outward. […] To study the ability of the peptides of the invention to recover the basal keratinocyte state, the expression of Keratins 10 and 14 is evaluated by immunohistochemistry in a three-dimensional culture system, Reconstructed Human Epidermal Tissue (RHE), that reproduces in vitro the histological organization of human epidermis in situ. […]\nThe expression of Keratins 10 and 14 is evaluated by immunohistochemistry with a specific primary antibody and a fluorescently labelled secondary antibody. […] At the end of the incubation, slides are washed with 0.2% solution of Tween 20 in PBS and are incubated with Alexa Fluor® 488 Goat anti-mouse IgG (H+L) secondary antibody (Invitrogen, green fluorescence emission dye) for 1 hour at room temperature in a dark humidified chamber. […]"}, "human miRNA145": {"system": "human miRNA145", "test": "miRNA145 inhibition on Human Keratinocyte HaCaT cell line, direct quantification by luminescence", "type": "cell-based", "conditions": "HaCaT cells, 0.3 mg/ml, 24 hours, normalized with Snord48; mean of 3 experiments for DD14024, one experiment for the others", "method": "The synthetic peptide candidates are evaluated for the inhibition of human miRNA145 expression level using a direct miRNA145 quantification assay based on luminescence detection in a Human Keratinocyte HaCaT cell line.\nHaCat cells (Deutsches Krebsforschungszentrum) are seeded at 3.0×10^4 cells/well in 96-clear wells plates and incubated in a culture medium [(DMEM High Glucose with L-Glutamine (Lonza), supplemented with 10% Fetal Bovine Serum (Cultek)] for 24 hours at 37° C. in a water-saturated atmosphere of 95% air and 5% CO2. Then, the cells with the candidates added at 0.3 mg/ml in the culture medium are treated for 24 hours at 37° C., 95% air and 5% CO2. Cells with culture medium only are treated to the same conditions to provide basal conditions. Each cell culture condition is assayed at least in 6 biological replicates. At the end of the incubation period, the cells are lysed and the relative miRNA145 expression level is quantified by a specific assay kit (QuantiGene™ 2.0 miRNA Assay Kit) following manufacturer's instructions (Affymetrix). Briefly, to capture miRNA145, culture lysates are incubated overnight at 46±1° C. in 96-white well plates with the miRNA145 specific probe set (Capture extenders and Label extenders). As an endogenous expression control, the housekeeping Snord48 is quantified using a specific probe set. Next day, the signal amplification tree is built via sequential hybridization at 46±1° C. of three probes: PreAmplifier, Amplifier and Alkaline Phosphatase Label Probe. Then, the signal is detected by adding a chemiluminescent substrate and using a Microplate Luminometer Reader (Clariostar-BMG LabTech).\nThe miRNA145 expression level result is normalized with the Snord48 expression level for each cell culture condition and the relative decrease in the miRNA145 expression level is calculated respect to basal control (cells treated with culture medium only). The values represent the mean of 3 independent experiments for DD14024, and for the other candidates, represent the result of one experiment."}}, "data": [{"substance": "Ac-QEMRMQ-OH [DD14024, Ac-Gln-Glu-Met-Arg-Met-Gln-OH]", "values": [{"measurement": "Fold induction respect to basal conditions (%)", "setting": "Keratin 10", "value": 28.70, "unit": "%"}, {"measurement": "Relative level of miRNA145 respect to basal control (%)", "setting": "human miRNA145", "value": "85.06 ± 6.35", "unit": "%"}]}]}
